Here are results for 7 compounds from patent publication US20240182472A1, “INDAZOLE PYRIDONE COMPOUNDS AND USES THEREOF” (Bluejay Therapeutics, Inc., priority 2022, published 2024).

Data set [1] concerns HBV S-antigen secretion. In words: HBsAg assay (HepG2 HBV S-antigen secretion biological assay). Particulars: Hepatitis B virus, HepG2.2.15, 72 h, read-out: EC50, HBV S-antigen secretion. It counts as cell-based. As to the method: HepG2.2.15 cells were grown in flasks microscopically and seeded into 96-well plates at a concentration of 6.0×10^4 cells/well and incubated at 37° C., 5% CO2 overnight.
Source plate preparation. The stock concentration of reference compound and test compounds is 20 mM. Firstly, manually diluted the compound to obtain the first concentration points of 10 μM and 200 μM, respectively. Then a 3-fold, 8 points serial dilution is performed to obtain the 200× source plate.
Source plate compounds were pipetted as follows: 3 μL 200× source plate compounds into sterile 2 mL 96 well plate which contain 297 μL 2% FBS Medium, mix well and transfer 100 μL/well to corresponding cell culture plates. Therefore, the test conditions of the final compounds is 1 μM initiation, 3-fold serial dilution, and 8 concentration points in duplicate.
Incubate the cells at 37° C., 5% CO2 for three days.
24 hours post-seeding, the cells were treated with 200 μl/well of media containing serially diluted compounds in DMSO. DMSO alone was used as the no drug control. The final DMSO concentration in all wells was 0.5%.
The HBsAg kit (Auto Biology-CL 0310) was used to determine the level of secreted HBVsAg. The HBSAg assay was performed as follows: • a) Blance the ELISA kit at room temperature for 30 minutes. • b) Add 50 μL standard solution, sample, positive and negative control to each well of the microplate in the kit. • c) Add 50 μL HBsAg enzyme conjugate to each well. • d) Attach the plate membrane, oscillate for 60 seconds, and incubate at 37° C. for 60 minutes. • e) Add 350 μL washing buffer to each well, shake slightly, discard liquid, repeat 6 times. Then pat 5 times on an absorbent paper towel to dry the hole. • f) Add 50 μL mixture of reagent A and B to each well. Oscillate the microplate for 10 seconds. • g) Cover the plate membrane and incubate at room temperature for 10 minutes. Read the luminescent signal using Biotek-Synergy 2.
Compounds inhibition against HBsAg at different concentrations are calculated by the following formula:
Inhibition %=(1−value of sample/ave. value of control)×100
50% effective concentrations (EC50) and were calculated with the GraphPad Prism software.

The nature of data set [2]: In vivo pharmacokinetic study, oral, plasma and liver, rat. On the set-up: species or system Sprague Dawley rats. Particulars: for Observed level of "active metabolite" AUC0→last, Liver / Observed level of "active metabolite" AUC0→last, Plasma: active metabolite I.6 released after oral prodrug 32 mpk, Sprague-Dawley rats, n = 3; for concentrations of the dosed prodrug itself in plasma and tissue: single PO administration at 32 mg/kg in male SD rats, PK parameters not determined. On the procedure:
The compounds of this invention were tested orally administered in a formulation of 25% PEG 400: 10% solutol: 65% water with a 5 mL/Kg solution across species of CD-1 mice, C57BL/J6 mice, or Sprague Dawley rats following IACUC guidelines. The rat PK of Compound I.9 and Compound I.10 PO dose of 32 mpk exemplifies the methodology used across species.
The purpose of this rat PK study was to determine the pharmacokinetics of Compound I.9, Compound I.6 and Compound I.10 in plasma following oral gavage administration of Compound I.9 and Compound I.10 to male SD rats. For PO groups, the liver and plasma concentration were measured at 1, 2, 6 and 10 h post-dose. Concentrations of Compound I.9, Compound I.6 and Compound I.10 in plasma and tissue samples were determined by a liquid chromatography tandem mass spectrometry (LC-MS/MS) method. Oral (PO) Dose—Groups 1 and 2 Compound I.9 was prepared as a clear solution in 25% PEG400+10% Solutol+65% water (Adjust the final pH to 7˜8). Groups 3 and 4 Compound I.10 was prepared as a homogeneous suspension in 25% PEG400+10% Solutol+65% water (Adjust the final pH to 7˜8). Blood (about 0.2 mL) was collected at each time point via jugular vein puncture from each study animal into a tube A. The following 4-mix stabilizer for esterase inhibition was added into a pre-chilled commercial tube B containing potassium (K2) EDTA (0.85-1.15 mg) in advance. Then the blood in the tube A will be accurately transferred (4-mix stabilizer: blood, 1:10 (v:v)) into the tube B and placed on wet ice until centrifugation.
The following 4-mix stabilizer was added into the cold homogenizing buffer (MeOH/15 mM PBS 1:2) in advance. Then each tissue was weighed and added the cold homogenizing buffer with stabilizer at the ratio of 1:9 (1 g tissue with 9 mL buffer), then homogenized on wet ice. The tissue homogenate was kept at −60° C. or lower until LC-MS/MS analysis.
Bioanalytical Analysis The concentrations of Compound I.9, Compound I.6 and Compound I.10 in plasma and tissue were determined by using an LC-MS/MS method. Instrumentation and conditions for
Compound I.9, Compound I.10 and Compound I.6 in plasma and tissue homogenate. • LC parameters • Equipment: ACQUITY UPLC System • Analytical column: ACQUITY UPLC HSS T3 1.8 μm 2.1×50 mm • Inject volume: 5 μL for plasma; 3.5 μL for tissue homogenate • Mobile phase A: 0.1% FA & 2 mmol/L HCOONH4 in water/ACN (v/v, 95:5) • Mobile phase B: 0.1% FA & 2 mmol/L HCOONH4 in ACN/water (v/v, 95:5) • Elution Mode: Gradient
• Mass spectrometer: Triple Quad 6500 plus • Ionization mode: ESI (+) • Detective mode: MRM

As for `CCOC(=O)CCCCCCOc1cccc2c3n(nc12)C[C@@H](C(C)(C)C)n1cc(C(=O)O)c(=O)cc1-3` [I.3, (R)-6-(tert-butyl)-10-((7-ethoxy-7-oxoheptyl)oxy)-2-oxo-6,7-dihydro-2H-pyrido[2′,1′:3,4]pyrazino[1,2-b]indazole-3-carboxylic acid], the concentration for a half-maximal effect (EC50) (usually the midpoint of the concentration-response curve) in data set [1] was 11.8 nM. The same measure, in the same setting: to `CCOC(=O)CCCCCCCOc1cccc2c3n(nc12)C[C@@H](C(C)(C)C)n1cc(C(=O)O)c(=O)cc1-3` [I.7, (R)-6-(tert-butyl)-10-((8-ethoxy-8-oxooctyl)oxy)-2-oxo-6,7-dihydro-2H-pyrido[2′,1′:3,4]pyrazino[1,2-b]indazole-3-carboxylic acid] belongs 7.1 nM; to `CC(C)(C)[C@@H]1Cn2nc3c(OCCCCCC(=O)O)cccc3c2-c2cc(=O)c(C(=O)O)cn21` [I.1, (R)-6-(tert-butyl)-10-((5-carboxypentyl)oxy)-2-oxo-6,7-dihydro-2H-pyrido[2′,1′:3,4]pyrazino[1,2-b]indazole-3-carboxylic acid], 25.5 nM. Consider `CC(C)OC(=O)CCCCCCCOc1cccc2c3n(nc12)C[C@@H](C(C)(C)C)n1cc(C(=O)O)c(=O)cc1-3` [I.9, (R)-6-(tert-butyl)-10-((8-isopropoxy-8-oxooctyl)oxy)-2-oxo-6,7-dihydro-2H-pyrido[2′,1′:3,4]pyrazino[1,2-b]indazole-3-carboxylic acid], for which, in data set [2], the “Observed level of "active metabolite" AUC0→last, Liver” value was 29367 ng·h/g; the “Observed level of "active metabolite" AUC0→last, Plasma” value is 290 ng·h/g; the “concentrations of the dosed prodrug itself in plasma and tissue” value is “most concentrations were below the lower limit of quantitation”. The EC50 in data set [1] amounted to 5.3 ± 0.9 nM. `CCCCCCCOC(=O)CCCCCCOc1cccc2c3n(nc12)C[C@@H](C(C)(C)C)n1cc(C(=O)O)c(=O)cc1-3` [I.4, (R)-6-(tert-butyl)-10-((7-(heptyloxy)-7-oxoheptyl)oxy)-2-oxo-6,7-dihydro-2H-pyrido[2′,1′:3,4]pyrazino[1,2-b]indazole-3-carboxylic acid]: in data set [1], the concentration for a half-maximal effect (EC50) was found to be 14 nM. Regarding `CCCCOC(=O)CCCCCCCOc1cccc2c3n(nc12)C[C@@H](C(C)(C)C)n1cc(C(=O)O)c(=O)cc1-3` [I.10, (R)-10-((8-butoxy-8-oxooctyl)oxy)-6-(tert-butyl)-2-oxo-6,7-dihydro-2H-pyrido[2′,1′:3,4]pyrazino[1,2-b]indazole-3-carboxylic acid], in data set [2], the “Observed level of "active metabolite" AUC0→last, Liver” value came to 19444 ng·h/g; the “Observed level of "active metabolite" AUC0→last, Plasma” value came to 146 ng·h/g; the “concentrations of the dosed prodrug itself in plasma and tissue” value is reported as “most concentrations were below the lower limit of quantitation”. For the same compound, the concentration giving a half-maximal response (EC50) in data set [1] is 4 ± 0.8 nM.

Take `CC(C)(C)[C@@H]1Cn2nc3c(OCCCCCCCCC(=O)O)cccc3c2-c2cc(=O)c(C(=O)O)cn21` [I.13, (R)-6-(tert-butyl)-10-((8-carboxyoctyl)oxy)-2-oxo-6,7-dihydro-2H-pyrido[2′,1′:3,4]pyrazino[1,2-b]indazole-3-carboxylic acid]: the concentration giving a half-maximal response (EC50) in data set [1] is 1.2 ± 0.5 nM.
